# Reference: ChEMBL document CHEMBL2203242, “A regio- and stereoselective 1,3-dipolar cycloaddition for the synthesis of new-fangled dispiropyrrolothiazoles as antimycobacterial agents” (Bioorg Med Chem Lett, 2012)
# Tests used:
# Vero = experiment: Cytotoxicity against african green monkey Vero cells after 72 hrs by MTT assay; format: cell-based; conditions: Chlorocebus sabaeus
# [1] = tested on: Mycobacterium tuberculosis; experiment: Antimycobacterial activity against Mycobacterium tuberculosis H37Rv by agar dilution method; format: functional
SMILES,IC50 (Vero) [µg/mL],MIC90 [1] [µM]
NNC(=O)c1ccncc1 [ISONIAZID],> 62.5,0.73
COc1ccc([C@H]2[C@@H]3CSCN3[C@@]3(C(=O)Nc4ccc(OC(F)(F)F)cc43)[C@@]23Cc2cc(OC)c(OC)cc2C3=O)cc1OC,> 62.5,12.2
COc1cc2c(cc1OC)C(=O)[C@]1(C2)[C@@H](c2ccccc2)[C@@H]2CSCN2[C@@]12C(=O)N(N1CCOCC1)c1ccccc12,> 62.5,> 6.25
COc1cc2c(cc1OC)C(=O)[C@]1(C2)[C@@H](c2ccc(F)cc2)[C@@H]2CSCN2[C@@]12C(=O)N(N1CCOCC1)c1ccccc12,> 62.5,8.12
COc1cc2c(cc1OC)C(=O)[C@]1(C2)[C@@H](c2ccccc2Cl)[C@@H]2CSCN2[C@@]12C(=O)N(N1CCOCC1)c1ccccc12,> 62.5,6.29
COc1cc2c(cc1OC)C(=O)[C@]1(C2)[C@@H](c2ccc(F)cc2)[C@@H]2CSCN2[C@@]12C(=O)Nc1ccc(OC(F)(F)F)cc12,> 62.5,0.72
COc1ccc([C@H]2[C@@H]3CSCN3[C@@]3(C(=O)N(N4CCOCC4)c4ccccc43)[C@@]23Cc2cc(OC)c(OC)cc2C3=O)cc1OC,> 62.5,21.2
COc1cc2c(cc1OC)C(=O)[C@]1(C2)[C@@H](c2ccccc2)[C@@H]2CSCN2[C@@]12C(=O)Nc1ccc(OC(F)(F)F)cc12,> 62.5,> 6.25
COc1cc2c(cc1OC)C(=O)[C@]1(C2)[C@@H](c2ccccc2Cl)[C@@H]2CSCN2[C@@]12C(=O)Nc1ccc(OC(F)(F)F)cc12,> 62.5,11.4
